Laboratory results from US10280150B2 (FORMA TM2, Inc., priority 2014, dated 2019).

How the values were obtained:
[1] = target: IDH1-R132C recombinant protein (Homo sapiens (Human), UniProt O75874, R132C); test: IDH1-R132C enzymatic assay (inhibition of NADPH consumption, diaphorase/resazurin readout); assay type: biochemical; details: read-out: Enzyme IDH1 R132C IC50 (Range)
Procedure: (§1) Assays were performed in a 384-well black plate. An aliquot of 250 nL of compound was incubated with 10 μL of 30 nM IDH1-R132H or 10 nM IDH1-R132C recombinant protein in assay buffer (50 mM Tris pH=7.5, 150 mM NaCl, 5 mM MgCl2, 0.1% (w/v) Bovine Serum Albumin, and 0.01% Triton X-100) in each well at 25° C. for 15 minutes. After the plate was centrifuged briefly, an aliquot of 10 μL of 2 mM α-ketoglutarate and 20 μM NADPH solution prepared in assay buffer was then added to each well and the reaction was maintained at 25° C. for 45 minutes. An aliquot of 10 μL of diaphorase solution (0.15 U/mL diaphorase and 30 µM Resazurin in assay buffer) was added to each well. The plate was maintained at 25° C. for 15 minutes and then read on a plate reader with excitation and emission wavelengths at 535 nm and 590 nm, respectively. The IC50 of a given compound was calculated by fitting the dose response curve of inhibition of NADPH consumption at a given concentration with the four parameter logistic equation.

[2] = target: IDH1-R132H recombinant protein (Homo sapiens (Human), UniProt O75874, R132H); test: IDH1-R132H enzymatic assay (inhibition of NADPH consumption, diaphorase/resazurin readout); assay type: biochemical; details: read-out: Enzyme IDH1 R132H IC50 (Range)
Procedure: as §1

Sequence of IDH1-R132C recombinant protein (O75874 whole entry R132C): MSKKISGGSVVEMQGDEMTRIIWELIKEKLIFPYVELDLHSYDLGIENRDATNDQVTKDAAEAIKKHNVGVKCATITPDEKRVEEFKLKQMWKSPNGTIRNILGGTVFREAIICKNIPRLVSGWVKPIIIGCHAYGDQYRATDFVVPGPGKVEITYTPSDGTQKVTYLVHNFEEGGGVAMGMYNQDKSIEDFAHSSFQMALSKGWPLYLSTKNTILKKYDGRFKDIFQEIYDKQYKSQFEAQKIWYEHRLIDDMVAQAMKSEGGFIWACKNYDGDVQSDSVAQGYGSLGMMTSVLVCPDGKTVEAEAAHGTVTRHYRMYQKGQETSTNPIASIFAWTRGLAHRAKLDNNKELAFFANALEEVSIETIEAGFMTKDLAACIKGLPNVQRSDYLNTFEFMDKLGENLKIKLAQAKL
Sequence of IDH1-R132H recombinant protein (O75874 whole entry R132H): as the sequence (O75874 whole entry R132C) above, with C132H counted along it

With `C[C@H](Nc1nccc(N(CC2CC2)S(C)(=O)=O)n1)c1cc2cc(Cl)ccc2[nH]c1=O` [Compound I-2, (S)—N-(2-((1-(6-Chloro-2-oxo-1,2-dihydroquinolin-3-yl)ethyl)amino)pyrimidin-4-yl)-N-(cyclopropylmethyl)methanesulfonamide] the IC50 [1] was < 0.1 µM and the IC50 [2] was < 0.1 µM.

In the case of `C[C@H](Nc1nccc(N(C2CCCOC2)S(C)(=O)=O)n1)c1cc2cc(Cl)ccc2[nH]c1=O` (stereo partly drawn) [Compound I-3, N-(2-(((S)-1-(6-chloro-2-oxo-1,2-dihydroquinolin-3-yl)ethyl)amino)pyrimidin-4-yl)-N-(tetrahydro-2H-pyran-3-yl)methanesulfonamide], the IC50 [1] is reported as 0.1 to 1 µM and the IC50 [2] is reported as 0.1 to 1 µM.

With `CC(C)N(c1ccnc(N[C@@H](C)c2cc3cc(Cl)ccc3[nH]c2=O)n1)S(=O)(=O)c1cccnc1` [Compound I-4, (S)—N-(2-((1-(6-Chloro-2-oxo-1,2-dihydroquinolin-3-yl)ethyl)amino)pyrimidin-4-yl)-N-isopropylpyridine-3-sulfonamide] the IC50 [1] was < 0.1 µM and the IC50 [2] was < 0.1 µM.

In the case of `CC(C)CS(=O)(=O)N(c1ccnc(N[C@@H](C)c2cc3cc(Cl)ccc3[nH]c2=O)n1)C(C)C` [Compound I-5, (S)—N-(2-(1-(6-Chloro-2-oxo-1,2-dihydroquinolin-3-yl)ethylamino)pyrimidin-4-yl)-N-isopropyl-2-methylpropane-1-sulfonamide], the IC50 [1] is reported as 0.1 to 1 µM and the IC50 [2] is reported as < 0.1 µM.

In the case of `C[C@H](Nc1nccc(NC(C)(C)C)n1)c1cc2cc(Cl)ccc2[nH]c1=O` [Compound I-7], the IC50 [1] is reported as 1 to 10 µM and the IC50 [2] is reported as 0.1 to 1 µM.

`CC(C)CN(c1ccnc(N[C@@H](C)c2cc3cc(Cl)ccc3[nH]c2=O)n1)S(C)(=O)=O` [Compound I-8, (S)—N-(2-(1-(6-Chloro-2-oxo-1,2-dihydroquinolin-3-yl)ethylamino)pyrimidin-4-yl)-N-isobutylmethanesulfonamide] was tested, and the IC50 [1] was < 0.1 µM and the IC50 [2] was < 0.1 µM.

With `CC(C)N(c1ccnc(N[C@@H](C)c2cc3cc(Cl)ccc3[nH]c2=O)n1)S(C)(=O)=O` [Compound I-10, (S)—N-(2-(1-(6-Chloro-2-oxo-1,2-dihydroquinolin-3-yl)ethylamino)pyrimidin-4-yl)-N-isopropylmethanesulfonamide] the IC50 [1] was 0.1 to 1 µM and the IC50 [2] was < 0.1 µM.

In the case of `CC(C)N(c1ccnc(N[C@@H](C)c2cc3cc(Cl)ccc3[nH]c2=O)n1)S(=O)(=O)CC1CC1` [Compound I-11, (S)—N-(2-((1-(6-Chloro-2-oxo-1,2-dihydroquinolin-3-yl)ethyl)amino)pyrimidin-4-yl)-1-cyclopropyl-N-isopropylmethanesulfonamide], the IC50 [1] is reported as < 0.1 µM and the IC50 [2] is reported as < 0.1 µM.

`C[C@H](Nc1nccc(N(C2CC2)S(C)(=O)=O)n1)c1cc2cc(Cl)ccc2[nH]c1=O` [Compound I-14] was tested, and the IC50 [1] was 1 to 10 µM and the IC50 [2] was 0.1 to 1 µM.

`CC(C)CS(=O)(=O)N(C)c1ccnc(N[C@@H](C)c2cc3cc(Cl)ccc3[nH]c2=O)n1` [Compound I-15] gave an IC50 [1] of 0.1 to 1 µM and an IC50 [2] of 0.1 to 1 µM.

`C[C@H](Nc1nccc(N(CCC2CCOCC2)S(C)(=O)=O)n1)c1cc2cc(Cl)ccc2[nH]c1=O` [Compound I-16] showed an IC50 [1] of 1 to 10 µM and an IC50 [2] of 0.1 to 1 µM.

`CC(C)N(c1ccnc(N[C@@H](C)c2cc3cc(Cl)ccc3[nH]c2=O)n1)S(=O)(=O)c1ccc2c(c1)oc(=O)n2C` [Compound I-21] was tested, and the IC50 [1] was 1 to 10 µM and the IC50 [2] was 0.1 to 1 µM.

`CC(C)CN(C(=O)C1CC1)c1ccnc(N[C@@H](C)c2cc3cc(Cl)ccc3[nH]c2=O)n1` [Compound I-35] showed an IC50 [1] of 1 to 10 µM and an IC50 [2] of 0.1 to 1 µM.

`COc1nc(N[C@@H](C)c2cc3cc(Cl)ccc3n(C)c2=O)ncc1C#N` [Compound I-41, (S)-2-((1-(6-chloro-1-methyl-2-oxo-1,2-dihydroquinolin-3-yl)ethyl)amino)-4-methoxypyrimidine-5-carbonitrile] gave an IC50 [1] of 1 to 10 µM and an IC50 [2] of 1 to 10 µM.

In the case of `C[C@@H](Nc1nccc(N2CCOC2=O)n1)c1cc2cc(Cl)ccc2[nH]c1=O` [Compound I-45], the IC50 [1] is reported as 1 to 10 µM and the IC50 [2] is reported as 1 to 10 µM.

For `CC(C)[C@H]1COC(=O)N1c1ccnc(NCc2cc3cc(Cl)ccc3[nH]c2=O)n1` [Compound I-46, (S)-3-(2-(((6-Chloro-2-oxo-1,2-dihydroquinolin-3-yl)methyl)amino)pyrimidin-4-yl)-4-isopropyloxazolidin-2-one], the IC50 [1] was < 0.1 µM and the IC50 [2] was < 0.1 µM.

In the case of `CC(Nc1nccc(N2CCOC2=O)n1)c1cc2cc(Cl)ccc2[nH]c1=O` (stereo not shown) [Compound I-48], the IC50 [1] is reported as 0.1 to 1 µM and the IC50 [2] is reported as < 0.1 µM.

With `Cc1nn(C)c(C)c1-c1ccnc(N[C@@H](C)c2cc3cc(Cl)ccc3[nH]c2=O)n1` [Compound I-84] the IC50 [1] was > 10 µM and the IC50 [2] was 1 to 10 µM.

For `C[C@H](Nc1nccc(-c2c[nH]nc2C(F)(F)F)n1)c1cc2cc(Cl)ccc2[nH]c1=O` [Compound I-86], the IC50 [1] was > 10 µM and the IC50 [2] was 1 to 10 µM.

`C[C@H](Nc1nccc(-c2coc3ccccc23)n1)c1cc2cc(Cl)ccc2[nH]c1=O` [Compound I-89] showed an IC50 [1] of 1 to 10 µM and an IC50 [2] of 1 to 10 µM.

For `C[C@H](Nc1nccc(-c2cnn(C)c2)n1)c1cc2cc(Cl)ccc2[nH]c1=O` [Compound I-91], the IC50 [1] was 1 to 10 µM and the IC50 [2] was 0.1 to 1 µM.

`COc1ncccc1-c1ccnc(N[C@@H](C)c2cc3cc(Cl)ccc3[nH]c2=O)n1` [Compound I-93] was tested, and the IC50 [1] was > 10 µM and the IC50 [2] was 1 to 10 µM.

In the case of `COc1cnccc1-c1ccnc(N[C@@H](C)c2cc3cc(Cl)ccc3[nH]c2=O)n1` [Compound I-97], the IC50 [1] is reported as 1 to 10 µM and the IC50 [2] is reported as 1 to 10 µM.

`C[C@H](Nc1nccc(-c2cccc3c2OCC3)n1)c1cc2cc(Cl)ccc2[nH]c1=O` [Compound I-98] was tested, and the IC50 [1] was > 10 µM and the IC50 [2] was > 10 µM.

In the case of `COc1ccncc1-c1ccnc(N[C@@H](C)c2cc3cc(Cl)ccc3[nH]c2=O)n1` [Compound I-99], the IC50 [1] is reported as 0.1 to 1 µM and the IC50 [2] is reported as 0.1 to 1 µM.

`COCc1ccccc1-c1ccnc(N[C@@H](C)c2cc3cc(Cl)ccc3[nH]c2=O)n1` [Compound I-100] gave an IC50 [1] of 1 to 10 µM and an IC50 [2] of 0.1 to 1 µM.

With `COc1ccccc1-c1ccnc(N[C@@H](C)c2cc3cc(Cl)ccc3[nH]c2=O)n1` [Compound I-102] the IC50 [1] was 1 to 10 µM and the IC50 [2] was 1 to 10 µM.

`CC(C)[C@H]1COCCN1c1ccnc(N[C@@H](C)c2cc3cc(Cl)ccc3[nH]c2=O)n1` [Compound I-104, 6-chloro-3-((S)-1-(4-((S)-3-isopropylmorpholino)pyrimidin-2-ylamino)ethyl) quinolin-2(1H)-one] was tested, and the IC50 [1] was 1 to 10 µM and the IC50 [2] was 0.1 to 1 µM.

With `C[C@H](Nc1nccc([S+](C)[O-])n1)c1cc2cc(Cl)ccc2[nH]c1=O` (stereo partly shown) [Compound I-111] the IC50 [1] was 0.1 to 1 µM and the IC50 [2] was < 0.1 µM.

`CC(C)NC(=O)c1ccnc(N[C@@H](C)c2cc3cc(Cl)ccc3[nH]c2=O)n1` [Compound I-117] gave an IC50 [1] of 1 to 10 µM and an IC50 [2] of 0.1 to 1 µM.

In the case of `CC(C)CS(=O)(=O)Cc1ccnc(N[C@@H](C)c2cc3cc(Cl)ccc3[nH]c2=O)n1` [Compound I-121, (S)-6-Chloro-3-(1-(4-(isobutylsulfonylmethyl)pyrimidin-2-ylamino)ethyl)quinolin-2(1H)-one], the IC50 [1] is reported as 0.1 to 1 µM and the IC50 [2] is reported as 0.1 to 1 µM.

Work on `C[C@H](Nc1nccc(CS(C)(=O)=O)n1)c1cc2cc(Cl)ccc2[nH]c1=O` [Compound I-133] yielded an IC50 [1] of 1 to 10 µM and an IC50 [2] of 0.1 to 1 µM.

`CC(c1ccnc(N[C@@H](C)c2cc3cc(Cl)ccc3[nH]c2=O)n1)S(C)(=O)=O` (stereo partly drawn) [Compound I-135, 6-Chloro-3-((1S)-1-((4-(1-(methylsulfonyl)ethyl)pyrimidin-2-yl)amino)ethyl) quinolin-2(1H)-one] was tested, and the IC50 [1] was > 10 µM and the IC50 [2] was 1 to 10 µM.

For `C[C@H](Nc1nccc(C2(S(C)(=O)=O)CC2)n1)c1cc2cc(Cl)ccc2[nH]c1=O` [Compound I-136, (S)-6-Chloro-3-(1-(4-(1-(methylsulfonyl)cyclopropyl)pyrimidin-2-ylamino)ethyl)quinolin-2(1H)-one], the IC50 [2] was 0.1 to 1 µM.

For `CC(=O)N(Cc1ccnc(N[C@@H](C)c2cc3cc(Cl)ccc3[nH]c2=O)n1)C1CC1` [Compound I-137, (S)—N-((2-((1-(6-chloro-2-oxo-1,2-dihydroquinolin-3-yl)ethyl)amino)pyrimidin-4-yl)methyl)-N-cyclopropylacetamide], the IC50 [2] was 1 to 10 µM.

Work on `C[C@H](Nc1nccc(N)n1)c1cc2cc(Cl)ccc2[nH]c1=O` [Compound I-139] yielded an IC50 [2] of 1 to 10 µM.

`C[C@@H](Nc1nccc(N2CCCOC2=O)n1)c1cc2cc(Cl)ccc2[nH]c1=O` [Compound I-140] was tested, and the IC50 [2] was > 10 µM.

`COc1cc2[nH]c(=O)c([C@@H](C)Nc3nccc(N4CCOC4=O)n3)cc2cc1Cl` [Compound I-148] was tested, and the IC50 [2] was > 10 µM.

Compound `COc1cc(OC)nc(NCc2cc3cc(Cl)ccc3[nH]c2=O)n1` [Compound I-163, 6-Chloro-3-(((4,6-dimethoxypyrimidin-2-yl)amino)methyl)quinolin-2(1H)-one] has an IC50 [2] of 1 to 10 µM.

In the case of `CC(C)N(c1ccnc(NCc2cc3ccccc3[nH]c2=O)n1)S(C)(=O)=O` [Compound I-164, N-isopropyl-N-(2-(((2-oxo-1,2-dihydroquinolin-3-yl)methyl)amino)pyrimidin-4-yl)methanesulfonamide], the IC50 [2] is reported as > 10 µM.

Compound `CC(C)N(c1ccnc(NCc2cc3ccc(F)cc3[nH]c2=O)n1)S(C)(=O)=O` [Compound I-165] has an IC50 [2] of 1 to 10 µM.

`Cc1ccc2[nH]c(=O)c(CNc3nccc(N(C(C)C)S(C)(=O)=O)n3)cc2c1` [Compound I-166] showed an IC50 [2] of 1 to 10 µM.

For `O=C1OCCN1c1ccnc(NC(CF)c2cc3cc(Cl)ccc3[nH]c2=O)n1` (stereo not shown) [Compound I-171], the IC50 [2] was > 10 µM.
